Consider 6 molecules from patent publication US20050182020A1, “Ceramide de novo synthesis-based therapeutic and prophylactic methods, and related articles of manufacture” (priority 2003, published 2005).

One series deals with HMG-CoA synthase mRNA. Kind of series: Northern blot of HMG-CoA synthase mRNA in CHO cells. Format: cell-based, Chinese hamster. As to conditions: myriocin 1 μM, 16 h.
Series [1] deals with cellular sphingomyelin levels. The experiment in a line: Cellular sphingomyelin levels (TLC, phosphorus). Type of series: cell-based. Conditions: within 24 h; data not shown. From the text:
An aliquot was used for luciferase and protein determination. […] Lipids were then dried under N2. […] Absolute cpm values range between 400 and 800 cpm. […] In brief, lipids were extracted as above. Lipid extracts were run on TLC.
What is the role of cellular sphingomyelin levels on SRE-mediated gene transcription? […] LY-B cells have decreased sphingomyelin levels. Yet, SRE-mediated gene transcription is decreased in LY-B cells as well as in myriocin treated cells.

Series [2] relates to SRE-mediated gene transcription. The experiment in a line: SRE-promoter luciferase reporter gene assay in stably transfected CHO cells. Conditions: for SRE-mediated gene transcription (luciferase RLU/protein): myriocin 1 μM, cycloserine 500 mM, fumonisin B1 10 μM, PPMP 20 μM, NB-DNJ 40 μM, cholesterol/25-OH cholesterol 10/1 μg/ml, vs 1% BSA. Type of series: cell-based, Chinese hamster. The procedure: FIG. 3. Inhibition of ceramide synthesis and SRE-mediated gene transcription. (A) Decreased ceramide synthesis correlates with decreased levels of SRE-mediated gene transcription and mSREBP. […] After cell lysis, luciferase activity was analyzed, and expressed as a ratio of protein content. Data represent the average (±S.D.) of at least 4 different experiments, each performed in triplicate. […] CHO cells stably transfected with an SRE-promoter construct linked to the luciferase reporter gene were incubated for 8 h in the presence of control conditions (1% BSA) or increasing levels of myriocin (0.25-1 μM). After cell lysis, luciferase activity was analyzed, expressed as a ratio of protein content. Data represent the average (±S.D.) of at least 3 different experiments, each performed in triplicate.
FIG. 4. Increased ceramide synthesis and SRE-mediated gene transcription. (A) Increased ceramide de novo synthesis correlates with increased SRE-mediated gene transcription. On day 1, CHO cells stably transfected with an SRE-promoter construct linked to the luciferase reporter gene were plated at 80% confluency. […] Cells were harvested, lysed and analyzed for luciferase activity (measured in relative light units, RLU) and protein content. Data are expressed as percentage of control and represent the average (±S.D.) of three different experiments, each performed in triplicate. Inset: Western blot analysis: On day 1, CHO cells were plated in regular growth medium. On day 2, cells were incubated for 8 h with control medium (1% BSA) or DMS (5 μM). Whole cell extracts (30 μg protein) were loaded on a 4-14% continuous gradient SDS-PAGE gel. P and M denote the precursor (125 kd) and mature (68 kd) form of SREBP-1 in a representative experiment. (B) DMS increases ceramide de novo synthesis. CHO cells were treated for 3.5 h either with control conditions (1% BSA) or DMS (2.5-5 μM). […] Data are expressed as dpm/protein and represent a typical experiment.
(§1) FIG. 5. LY-B cells fail to recover SRE-mediated gene transcription in cholesterol depletion but recover SRE-mediated gene transcription in the presence of DMS. […] Both cell lines have been transfected to stably express an SRE-promoter construct linked to the luciferase reporter gene. On day 2, cells were incubated for 16 h with 1% BSA (control) or in the presence of cholesterol (10 μg/ml) and 25-OH cholesterol (1 μg/ml) to decrease SRE-mediated gene transcription. Then, incubation medium was switched to 1% BSA or DMS (5 μM) for 6 h. After cell lysis, luciferase activity was analyzed, expressed as a ratio of protein content. Data represent the average (±S.D.) of at least 4 different experiments, each performed in triplicate.
Cell culture and stable transfections: Cells were grown in F12-nutrient mixture medium containing 10% fetal bovine serum (FBS), 1% glutamine (v/v), 1% penicillin/streptomycin (v/v), and 10% fetal bovine serum (v/v) at 37° C. in humidified CO2 (5%). To obtain stable transfectants, cells were plated in 12-well plates at 50% confluency and transfected for 5 h in the presence of serum-free Dulbecco's modified Eagle's medium (DMEM) with pSyn SRE (1 μg/well) and pWLNeo (0.25 μg/well) using Lipofectamin (1.5 μl/well). Cells were then incubated for 2 days in growth medium. On day three, neomycin-containing medium (400 μg/ml) was added. Selection for neomycin resistant colonies was continued for three weeks. Pooled clones were analyzed for luciferase expression. Experiments were performed with pooled clones as well as with cells derived from a single clone. Cells were grown in the presence of 400 μg/ml neomycin. For experimental use, cells were plated in the absence of neomycin at least 24 h ahead in regular growth medium.
Enzyme assays: Cells to be analyzed for luciferase activity were lyzed in lysis buffer A containing 0.1% Triton X-100, 50 mM Hepes, 10 mM MgSO4, pH 7.7. Cells were scraped, collected, vortexed and briefly centrifuged to pellet cell debris. […]
Background: A reporter such as luciferase makes a cellular process visible.

The subject of the next series is SREBP. Kind of series: Fluorescently labeled SREBP in cell culture after addition of DAG. Type of series: cell-based. Conditions: preliminary data in cell culture. As to the method:
Data: Propanolol ([…]) inhibits SRE-mediated gene transcription to 40% (+3%) within 30 min. Resvaratrol ([…]) inhibits SRE-mediated gene transcription to 7% (±16%) within 4 h.
Preliminary data: Inhibition of PAP by propanolol or inhibition of PKD by resvaratrol both decrease SRE-mediated gene transcription. Addition of a DAG analogue that is exogenously added and thus distributes to membranes other than the Golgi results in reorientation of fluorescently labeled mature SREBP.

The subject of series [3] is HSN1 lymphoblasts (HSN 4561). Kind of series: SRE-promoter reporter (adenovirus transfection) in HSN1 lymphoblasts. Type of series: cell-based, human. Conditions: 7 h. As to the method:
(§2) FIG. 10. Increased SRE-mediated gene transcription in HSN1 cells (HSN 4561). Cells were transfected with an SRE-element containing promoter-reporter gene. This construct is identical to the promoter-reporter gene used in all previous studies. In order to achieve transfection in lymphoblasts, this promoter construct was subcloned into an adenovirus vector. Cells (control lymphoblasts and HSN1 lymphoblasts) were transfected for 3 h with this adenovirus vector and left in growth medium overnight. Medium was then switched to experimental medium containing 1% fatty acid free BSA (control conditions) or cholesterol/25-OH cholesterol (10 ug/ml/1 ug/ml) or oleic acid. After 7 h the luciferase activity which reflects binding of SREBP to the SRE-promoter element was measured. Because adenovirus mediated transfections are transient transfections the necessity for a transfection control arises. The adenovirus vector contains a β-gal control gene that is not regulated by experimental conditions and serves as a transfection control (standard practice).

A further series concerns HSN1 cells (4561). Kind of series: Cholesterol / cholesterylester synthesis from 3H-mevalonate in HSN1 cells. Format: cell-based, human. The procedure:
(§3) FIG. 12. Increased free cholesterol synthesis in HSN cells. In order to investigate whether increased SRE-mediated gene transcription also results in increased cholesterol synthesis cells were incubated with radioactive mevalonate, a precursor which represents a committed step in cholesterol synthesis (see FIG. 11). Control and HSN1 cells were incubated for 7 h and 18 h in the presence of trace amounts of ^3H-mevalonate. Lipids were extracted and separated by thin […] chromatography (TLC). Radioactive counts in the cholesterol fraction were analyzed by liquid scintillation counting.
FIG. 14. Oleic acid increases HSN 4561 synthesis of high levels of free cholesterol but not cholesteryl ester. Cells were incubated for 4 h with ^3H-mevalonate and grown in the presence or absence of 0.3 mM oleic acid.
(§4) FIG. 16. Incubation with mevastatin decreases free cholesterol synthesis in HSN cells as well as in controls. Cells were treated for 16 h in the presence of ^3H-mevalonate to assess cholesterol de novo synthesis and several inhibitors of either cholesterol or ceramide synthesis (Mevastatin=Statin), C6 ceramide (previously shown by us to decreased SREBP levels and SRE-mediated gene transcription), cycloserine (inhibitor of serine-palmiltoyl transferase), cholesterol (classical inhibitor of de novo synthesis by negative feedback).

Series [4] relates to control lymphoblasts (HSN 4513). The experiment in a line: SRE-promoter reporter (adenovirus transfection) in control lymphoblasts. Type of series: cell-based, human. As to conditions: oleic acid, 7 h. As to the method: as §2
The subject of a further series is NPA fibroblasts. Kind of series: SRE-promoter reporter (adenoviral transfection) in NPA fibroblasts. Format: cell-based. Conditions: addition of cholesterol; reversible on switch to BSA. The procedure: FIG. 20. SRE-mediated gene transcription is increased in NPA fibroblasts. The hypothesis was evaluated that increased ceramide de novo synthesis affects SREBP and SRE-mediated gene transcription in Niemann Pick Type A cells. Cells were transfected with an SRE-promoter construct (using adenoviral transfection as above in HSN cells). […] Addition of cholesterol decreases SRE-mediated gene transcription and this process is also reversible.

The test system of series [5] is SRE-mediated gene transcription. Kind of series: SRE-promoter luciferase reporter gene assay in LY-B cells (CHO cells mutated in LCB1 subunit of serine-palmitoyl transferase). As to conditions: cholesterol 10 μg/ml and 25-OH cholesterol 1 μg/ml, 16 h. Format: cell-based, Chinese hamster. The procedure: as §1
Enzyme assays: Cells to be analyzed for luciferase activity were lyzed in lysis buffer A containing 0.1% Triton X-100, 50 mM Hepes, 10 mM MgSO4, pH 7.7. Cells were scraped, collected, vortexed and briefly centrifuged to pellet cell debris. An aliquot was used to measure luciferase activities in a luminometer (Berthold LB 9501, Wallac Inc., Gaithersburg, Md.) with a luciferin reagent from Promega (Madison, Wis.). Luciferase activity in relative light units (RLU) was divided by protein content (mg/ml) for each extract. […]

Series [6] has as its system Niemann Pick Disease Type A fibroblasts. Kind of series: Ceramide de novo synthesis (3H-serine) in NPA fibroblasts. Conditions: overnight incubation with agent, vs 1% BSA. Format: cell-based. The procedure: FIG. 19. Ceramide synthesis is increased in NPA fibroblasts. Fibroblasts from different control individuals and from two different cell lines derived from Niemann Pick Disease Type A were incubated for 4 h in the presence of ^3H-serine to measure de novo ceramide synthesis after having been incubated overnight in either control medium (1% BSA) or in the presence of cholesterol or C8-Ceramide. Lipid extraction and separation were carried out.

The test system of another series is control cells (4513). Kind of series: Cholesterol synthesis from 3H-mevalonate in control lymphoblasts. Conditions: 16 h. Type of series: cell-based, human. The procedure:
as §3, §4

For series [7] the following is noted: several animal studies; cited from earlier work.
For series [8] the following is noted: rats fed toxic levels, 20 week study (ref. 8); cited from earlier work.

Description for HMG-CoA synthase mRNA: CHO cells were incubated for 8 h with control medium (1% BSA) or myriocin (1 μM). 30 μg of total RNA were loaded per lane, electrophoresed on a 1.2% agarose/formaldehyde gel and transferred to a nylon membrane. The membrane was hybridized with ^32P-labeled probes for HMG-CoA synthase and glyceraldehyde-3-phosphate dehydrogenase (GAPDH) as outlined under “Experimental Details.” Lane 1: Control; lane 2: Myriocin (1 μM). The level of HMG-CoA synthase mRNA relative to control values was calculated after quantitative phosphorimager analysis and correction of loading differences determined by the glyceraldehyde-3-phosphate dehydrogenase signal.
Northern blots: CHO cells were plated on day 1 at 80% confluency and treated with the respective conditions for 8 h. Total RNA was isolated by Trizol reagent (Invitrogen, Grand Island, N.Y.) as described by the manufacturer. RNA concentration was calculated from optical density at 260 nm. 30 μg of total RNA were separated by 1.2% denaturing agarose/formaldehyde electrophoresis and transferred by capillary transfer to Duralon UV-membranes (Stratagene, La Jolla, Calif.). The cDNA probe for northern hybridization of HMG-CoA synthase was obtained by RT-PCR from human THP-1 macrophages mRNA using previously described primers (4). […]

Take `CCCCCCC(=O)CCCCCC/C=C/C[C@@H](O)[C@H](O)[C@@](N)(CO)C(=O)O` [myriocin]: the “HMG-CoA synthase mRNA levels relative to control” value in the series on HMG-CoA synthase mRNA was “half”. Moreover, in series [1], the cellular sphingomyelin levels result is on record as “does not change”. The “SRE-mediated gene transcription (luciferase RLU/protein)” value in series [2] (8 h) was “significantly reduced”. For the same molecule, the “expression of another control β-gal reporter gene” value in series [2] (data not shown) was “did not decrease”. Further, the “SRE-mediated gene transcription, dose dependence” value in [2] (myriocin 0.25-1 μM, 8 h) is on record as “dose-dependently decreases”.
For the molecule diacylglycerol [DAG], the “effect on fluorescently labeled SREBP” value in the series on SREBP was “attracts fluorescently labeled SREBP”.
Consider `CCCCCCCC/C=C\CCCCCCCC(=O)O` [Oleic acid], for which the “SRE-mediated gene transcription (luciferase/β-gal) in HSN 1 (4561)” value in series [3] (oleic acid) was “does not decrease”. Besides, the “synthesis of cholesterol from 3H-mevalonate” value with HSN1 cells (4561) (HSN 4561, 0.3 mM oleic acid, 4 h) is recorded as “stimulates”. The “SRE-mediated gene transcription (luciferase/β-gal) in controls” value in series [4] is on record as “does not decrease”.
For `CC(C)CCC[C@@H](C)[C@H]1CC[C@H]2[C@@H]3CC=C4C[C@@H](O)CC[C@]4(C)[C@H]3CC[C@]12C` [cholesterol], the SRE-mediated gene transcription result with NPA fibroblasts is “decreases”. For the same molecule, in [3] (cholesterol/25-OH cholesterol 10/1 ug/ml), the “SRE-mediated gene transcription (luciferase/β-gal) in HSN 1 (4561)” value is on record as “very efficient in decreasing”. Moreover, in series [5], the “decrease of SRE-mediated gene transcription in LY-B cells compared to control cells” value is “significantly stronger”. In addition, the “sensitivity of cholesterol de novo synthesis in HSN1 cells (4561) relative to control cells” value in the series on HSN1 cells (4561) (16 h, 3H-mevalonate) is “more sensitive”. Also, in series [6], the “ceramide de novo synthesis (3H-serine, 4 h)” value is “does not significantly decrease”.
Turning to `CC[C@H](C)C(=O)O[C@H]1CCC=C2C=C[C@H](C)[C@H](CC[C@@H]3C[C@@H](O)CC(=O)O3)[C@H]21` [mevastatin], in the series with control cells (4513), the “free cholesterol synthesis in controls” value is listed as “decreases”. Also, the “free cholesterol synthesis in HSN cells” value in the series on HSN1 cells (4561) (16 h, 3H-mevalonate) was “decreases”.
`CCCC[C@@H](C)[C@@H](OC(=O)C[C@@H](CC(=O)O)C(=O)O)[C@H](C[C@@H](C)C[C@H](O)CCCC[C@@H](O)C[C@H](O)[C@H](C)N)OC(=O)C[C@@H](CC(=O)O)C(=O)O` [fumonisin B1]: in [7], the hepatotoxicity entry is recorded as “hepatotoxicity”. Moreover, the plasma cholesterol levels result in [8] is reported as “significantly decreased”. For the same molecule, the “SRE-mediated gene transcription (luciferase RLU/protein)” value in series [2] (8 h) is given as “significantly reduced”.
